From PubChem BioAssay AID624367 (Broad Institute, 2012)
Calls of active or inactive are those of the source. How the calls were made is not given here.

Test: lymphoblastoid cell cytotoxicity, dose response, cytotoxicity control, plate reader, dry powder, set 2 (AID 624367)
Conditions: Lymphoblastoid cell line (LCL) cytotoxicity, plate reader

| SMILES | activity change, negative = cytotoxicity (at 35 µM (top of the series)) | activity change, negative = cytotoxicity (at 30 µM (top of the series)) |
| --- | --- | --- |
| CCCNC(=O)c1cc2c(c(-c3cccc(-c4cccc(F)c4)c3)n1)[C@H](CCO)N([S@@](=O)C(C)(C)C)C2 | -1.43% (inactive) |  |
| N#C[C@H]1N[C@H](CO)[C@H]1c1ccc(C#Cc2ccccc2F)cc1 | -8.35% (inactive) |  |
| O=C(C[C@@H]1C[C@@H]2c3cc(NC(=O)c4cccnc4)ccc3O[C@@H]2[C@H](CO)O1)NCC(F)(F)F | -0.745% (inactive) |  |
| Cc1noc(C)c1S(=O)(=O)Nc1ccc2c(c1)C(=O)N([C@H](C)CO)C[C@H](C)[C@H](CN(C)Cc1ccc(C(F)(F)F)cc1)OCCCC[C@@H](C)O2 | -2.12% (inactive) |  |
| O=C(C[C@H]1C[C@@H]2c3cc(NC(=O)c4ccc5c(c4)OCO5)ccc3O[C@@H]2[C@@H](CO)O1)NCc1ccc(Oc2ccccc2)cc1 | -5.15% (inactive) |  |
| COc1ccc(S(=O)(=O)N(C)C[C@@H]2Oc3ncc(/C=C/c4ccccc4)cc3C(=O)N([C@@H](C)CO)C[C@H]2C)cc1 | -4% (inactive) |  |
| CC(C)NC(=O)N1Cc2cc(C(=O)NC3Cc4ccccc4C3)nc(-c3cccc(-c4cccnc4)c3)c2[C@@H]1CCO | 0.066% (inactive) |  |
| COc1cccc(S(=O)(=O)N(C)C[C@H]2Oc3cc(C4=CCCCC4)ccc3S(=O)(=O)N([C@@H](C)CO)C[C@@H]2C)c1 | 4.96% (inactive) |  |
| C[C@@H]1CN([C@H](C)CO)C(=O)c2c(c3ccccc3n2C)-c2ccccc2CO[C@H]1CN(C)C(=O)Nc1ccc(F)cc1 | 1.26% (inactive) |  |
| Cc1noc(C)c1S(=O)(=O)Nc1ccc2c(c1)C(=O)N([C@@H](C)CO)C[C@@H](C)[C@H](CN(C)Cc1ccc(C(F)(F)F)cc1)OCCCC[C@H](C)O2 |  | -0.638% (inactive) |
| C[C@@H](NC(=O)C[C@H]1C=C[C@H](NC(=O)Cc2ccccn2)[C@@H](CO)O1)c1ccccc1 | -5.21% (inactive) |  |
| CC(C)NC(=O)N1Cc2cc(C(=O)NC3Cc4ccccc4C3)nc(-c3cccc(-c4cccnc4)c3)c2[C@H]1CCO | -2.11% (inactive) |  |
| C[C@@H]1CN([C@H](C)CO)C(=O)c2c(c3ccccc3n2C)-c2ccccc2CO[C@@H]1CN(C)C(=O)Nc1ccc(F)cc1 | -1.38% (inactive) |  |
| Cc1cc(C(=O)Nc2ccc3c(c2)C(=O)N(C)[C@H]2CC[C@@H](CC(=O)NCc4ccc(-c5ccccc5)cc4)O[C@H]2CO3)no1 | -17.8% (inactive) |  |
| C[C@@H]1CN([C@H](C)CO)S(=O)(=O)c2ccc(C#C[C@@H](C)O)cc2O[C@H]1CN(C)Cc1ccc(-c2ccccc2)cc1 | -3.17% (inactive) |  |
| COc1ccccc1C(=O)Nc1ccc2c(c1)C(=O)N(C)[C@@H]1CC[C@H](CC(=O)NCCc3ccncc3)O[C@H]1CO2 | 0.764% (inactive) |  |
| C[C@H](NC(=O)C[C@@H]1C=C[C@H](NC(=O)Cc2ccccn2)[C@H](CO)O1)c1ccccc1 |  | 6.34% (inactive) |
| O=C(C[C@@H]1CC[C@@H]2[C@H](COC[C@H](O)CN2Cc2ccc3c(c2)OCO3)O1)Nc1ccc(-c2ccccc2)cc1 | -4.84% (inactive) |  |
| O=C(C[C@@H]1C[C@@H]2c3cc(NS(=O)(=O)c4ccc(F)cc4)ccc3O[C@@H]2[C@H](CO)O1)NC1CCCCC1 | 0.429% (inactive) |  |
| C[C@H](NC(=O)C[C@H]1C=C[C@@H](NC(=O)Cc2ccccn2)[C@H](CO)O1)c1ccccc1 | 9.63% (inactive) |  |

| SMILES | activity change, negative = cytotoxicity (at 35 µM (top of the series)) | activity change, negative = cytotoxicity (at 30 µM (top of the series)) |
| --- | --- | --- |
| Cc1noc(C)c1S(=O)(=O)Nc1ccc2c(c1)C(=O)N([C@@H](C)CO)C[C@H](C)[C@@H](CN(C)Cc1ccc(C(F)(F)F)cc1)OCCCC[C@@H](C)O2 | -4.06% (inactive) |  |
| CS(=O)(=O)Nc1ccc2c(c1)[C@H]1C[C@@H](CC(=O)NCC3CC3)O[C@@H](CO)[C@H]1O2 | -1.05% (inactive) |  |
| C[C@H]1CN([C@@H](C)CO)C(=O)Cc2cc(NC(=O)Cc3ccccc3)ccc2O[C@@H]1CN(C)Cc1ccc(C(F)(F)F)cc1 | -5.68% (inactive) |  |
| CN(C)C(=O)c1cccc(-c2cccc(-c3nc(C(=O)NCc4ccccc4)cc4c3[C@@H](CCO)N([S@](=O)C(C)(C)C)C4)c2)c1 |  | 8.17% (inactive) |
| Cc1noc(C)c1S(=O)(=O)Nc1ccc2c(c1)C(=O)N([C@@H](C)CO)C[C@H](C)[C@H](CN(C)Cc1ccc(C(F)(F)F)cc1)OCCCC[C@@H](C)O2 |  | -7.54% (inactive) |
| N#C[C@H]1[C@H](c2ccc(C#Cc3ccccc3F)cc2)[C@@H](CO)N1C(=O)c1cccnc1 | 3.23% (inactive) |  |
| C[C@H](CO)N1C[C@H](C)[C@H](CN(C)Cc2ccc(Oc3ccccc3)cc2)Oc2ccc(NC(=O)CCCN(C)C)cc2C1=O | -0.446% (inactive) |  |
| O=C(Cc1ccccn1)NCC[C@@H]1CC[C@H](NC(=O)Nc2ccc(Cl)cc2)[C@@H](CO)O1 | 6.35% (inactive) |  |
| Cc1cc(C(=O)Nc2ccc3c(c2)C(=O)N(C)[C@@H]2CC[C@H](CC(=O)NCc4ccc(-c5ccccc5)cc4)O[C@H]2CO3)no1 |  | -7.18% (inactive) |
| C[C@H](NC(=O)C[C@@H]1C=C[C@@H](NC(=O)Cc2ccccn2)[C@@H](CO)O1)c1ccccc1 | -1.09% (inactive) |  |
| O=C(Cc1ccccn1)NCC[C@@H]1CC[C@H](NC(=O)Nc2ccc(Cl)cc2)[C@H](CO)O1 | 7.74% (inactive) |  |
| C[C@H](CO)N1C[C@H](C)[C@H](CN(C)Cc2ccc(C(F)(F)F)cc2)Oc2ccc(NC(=O)Cc3ccccc3)cc2CC1=O | 3.51% (inactive) |  |
| O=C(C[C@@H]1C[C@H]2c3cc(NS(=O)(=O)c4ccc(F)cc4)ccc3O[C@H]2[C@H](CO)O1)NCc1ccc(Oc2ccccc2)cc1 | -1.34% (inactive) |  |
| C[C@@H]1CN([C@@H](C)CO)C(=O)Cc2cc(NC(=O)Cc3ccccc3)ccc2O[C@H]1CN(C)Cc1ccc(C(F)(F)F)cc1 | -7.42% (inactive) |  |
| COc1cccc(S(=O)(=O)N(C)C[C@@H]2Oc3cc(C4=CCCCC4)ccc3S(=O)(=O)N([C@@H](C)CO)C[C@H]2C)c1 | 0.436% (inactive) |  |
| COc1ccc(CNC(=O)c2cc3c(c(-c4cccc(-c5ccc(C#N)cc5)c4)n2)[C@@H](CCO)N([S@](=O)C(C)(C)C)C3)cc1 | -0.743% (inactive) |  |
| CC(C)NC(=O)N1[C@H](CO)[C@H](c2ccc(C#CC3CCCCC3)cc2)[C@@H]1C#N | -1.32% (inactive) |  |
| COC(=O)C[C@@H]1C[C@@H]2c3cc(NC(=O)CN(C)C)ccc3O[C@@H]2[C@@H](CO)O1 | -2.96% (inactive) |  |
| O=C(C[C@@H]1CC[C@@H]2[C@H](COC[C@@H](O)CN2Cc2ccc(Oc3ccccc3)cc2)O1)N1CCc2ccccc2C1 | -13.2% (inactive) |  |
| O=C(Cc1ccccn1)NCC[C@H]1CC[C@@H](NC(=O)Nc2ccc(Cl)cc2)[C@H](CO)O1 | -1.08% (inactive) |  |

| SMILES | activity change, negative = cytotoxicity (at 35 µM (top of the series)) | activity change, negative = cytotoxicity (at 30 µM (top of the series)) |
| --- | --- | --- |
| C/C=C/c1cccc(-c2nc(C(=O)Nc3nccs3)cc3c2[C@@H](CCO)N(C(=O)NC(C)C)C3)c1 | 3.79% (inactive) |  |
| C[C@@H]1CN([C@@H](C)CO)S(=O)(=O)c2ccc(C#Cc3ccncc3)cc2O[C@H]1CN(C)C(=O)Nc1ccc2c(c1)OCO2 | -1.7% (inactive) |  |
| CO[C@H]1CN(C)C(=O)c2ccc(NC(=O)C3CC3)cc2OC[C@H](C)N(C(=O)c2ccccn2)C[C@H]1C | -0.57% (inactive) |  |
| O=C(Cc1ccccn1)NCC[C@@H]1CC[C@@H](NC(=O)Nc2ccc(Cl)cc2)[C@H](CO)O1 | -2.4% (inactive) |  |
| CN1C(=O)c2cc(NC(=O)c3ccc(C(F)(F)F)cc3)ccc2OC[C@@H]2O[C@H](CC(=O)NC3Cc4ccccc4C3)CC[C@H]21 | -1.04% (inactive) |  |
| CN1C(=O)c2cc(NC(=O)Cc3cccs3)ccc2OC[C@@H]2O[C@H](CC(=O)NCc3ccc(-c4ccccc4)cc3)CC[C@H]21 | -7.27% (inactive) |  |
| Cc1cc(C(=O)Nc2ccc3c(c2)C(=O)N(C)[C@@H]2CC[C@@H](CC(=O)NCc4ccc(-c5ccccc5)cc4)O[C@H]2CO3)no1 | -5.25% (inactive) |  |
| CC(C)c1ccc(NC(=O)C[C@H]2CC[C@H]3[C@@H](COc4ccc(NC(=O)Nc5ccc(F)c(F)c5)cc4C(=O)N3C)O2)cc1 | -0.979% (inactive) |  |
| C[C@@H](NC(=O)C[C@H]1C=C[C@@H](NC(=O)Cc2ccccn2)[C@@H](CO)O1)c1ccccc1 | -7.23% (inactive) |  |
| C[C@@H]1CN([C@@H](C)CO)S(=O)(=O)c2ccc(C#C[C@@H](C)O)cc2O[C@H]1CN(C)Cc1ccc(-c2ccccc2)cc1 | -1.38% (inactive) |  |
| O=C(Cc1ccccn1)NCC[C@@H]1CC[C@@H](NC(=O)Nc2ccc(Cl)cc2)[C@@H](CO)O1 | 1.2% (inactive) |  |
| CC(C)(C)[S@@](=O)N1Cc2cc(C(=O)NCCc3ccncc3)nc(-c3cccc(-c4cccnc4)c3)c2[C@H]1CCO | 4.85% (inactive) |  |
| COc1cccc(S(=O)(=O)N(C)C[C@H]2Oc3cc(C4=CCCCC4)ccc3S(=O)(=O)N([C@H](C)CO)C[C@H]2C)c1 | -4.62% (inactive) |  |
| C[C@@H](NC(=O)C[C@@H]1C=C[C@H](NC(=O)Cc2ccccn2)[C@H](CO)O1)c1ccccc1 | 6.45% (inactive) |  |
| Cc1cc(C(=O)Nc2ccc3c(c2)C(=O)N(C)[C@H]2CC[C@H](CC(=O)NCc4ccc(-c5ccccc5)cc4)O[C@H]2CO3)no1 | -10.2% (inactive) |  |
| CN1C(=O)c2cc(NC(=O)c3ccc(C(F)(F)F)cc3)ccc2OC[C@@H]2O[C@@H](CC(=O)NC3Cc4ccccc4C3)CC[C@H]21 | -7.43% (inactive) |  |
| C[C@@H](NC(=O)C[C@H]1C=C[C@@H](NC(=O)Cc2ccccn2)[C@H](CO)O1)c1ccccc1 | -1.43% (inactive) |  |
| O=C(C[C@@H]1CC[C@H]2[C@@H](COC[C@H](O)CN2Cc2ccc(Oc3ccccc3)cc2)O1)N1CCc2ccccc2C1 | -13.4% (inactive) |  |
| CS(=O)(=O)Nc1ccc2c(c1)[C@@H]1C[C@H](CC(=O)NCC3CC3)O[C@H](CO)[C@@H]1O2 | 1.53% (inactive) |  |
